Patent US20050112573A1, “Method of detecting toxic substance” (priority 2001, published 2005)

Test system: yeast genes (level of expressed mRNA)
Test: DNA chip analysis of expressed mRNA of yeast genes after 2 h culture with a toxic chemical substance
Assay type: cell-based, Saccharomyces cerevisiae S288C
Description: Yeast (Saccharomyces cerevtisiae S288C (α SUC2mal mel gap2 CUP1)) were cultured at 25° C. on YPD medium (yeast extract 1%, polypepton 2%, glucose 2%). One of toxic chemical substances was added to the cell at logarithmic growth phase, and the cell was further cultured for two hours. Cell was cultured without any chemical substance in the same condition, and was used as control. Concentrations of the chemical substances were defined to inhibit the growth of the yeast but not lead to death.
After the completion of cultivation, the culture was centrifuged to collect the cells. To the cells, sodium acetate buffer (50 mM sodium acetate, 10 mM EDTA, 1% SDS) was added, and the mixture was shaken at 65° C. for five minutes, followed by returning to room temperature, and obtaining the supernatant, which procedure was repeated two times. To the supernatant, ½ amount of a solution of phenol/chloroform was added, and the mixture was centrifuged to give a supernatant, which was added with an equal amount of chloroform, and the mixture was centrifuged to give a supernatant. To the supernatant, an equal amount of isopropanol containing 0.3 M sodium acetate was added, and the mixture was allowed to stand at room temperature for 30 minutes, after which the mixture was centrifuged to give a sediment of the whole RNAs. Seventy % ethanol was added to the sediment, and the mixture was again centrifuged to give a sediment, which was then dried and dissolved in water. mRNA was isolated from the whole RNAs as followings. In view of the fact that a poly A chain is attached to the 3′ terminus of mRNA, a polynucleotide having a poly T structure which was immobilized on the surface of latex beads was used to trap the mRNA, and then the mRNA was washed and eluted with spine column (Oligotex-dT30<Super>mRNA Purification Kit, Takara). Reverse transcription of the mRNA was conducted with a reverse transcriptase (Super Script II Reverse Transcriptase; catalogue No. 18064-014, GibcoBRL) using fluorescence-labeled nucleotides to give cDNAs that were introduced with Cy3-dUTP or Cy5-dUTP during the reverse transcription.
The labeled cDNAs were dissolved in TE buffer (10 mM Tris-HCl/1 mM EDTA, pH8.0), and the solution was dropped on the DNA chip containing the whole genes of yeast (DNA Chip Research Inc. Japan) so that the cDNAs were hybridized on the DNA chip at 65° C. for over 12 hours. The fluoresces intensity of the DNA chip was read with a scanner, and the ratio relative to the fluorescence intensity resulting from the absence of chemical substance was estimated as the following, which is shown in Tables 1 to 9: [formula]
In the Tables, “Intensity” indicated in the rightmost column is a value of the level of expressed mRNA of each gene in control cells as divided by the average level of the expressions of the whole genes.

With `C[S+](C)[O-]` [(15), dimethylsulfoxide] the “level of expressed mRNA in the presence of chemical substance/in its absence” value (“level … of chemical substance/in its absence” for short) (gene YAL012W) was 3.1, the “The level of expressed mRNA in the presence of chemical substance/absence: YAL014C” value (gene YAL014C) was 2.3 and the “The level of expressed mRNA in the presence of chemical substance/absence: YAL017W” value (gene YAL017W) was 1.0. The “The level of expressed mRNA in the presence of chemical substance/absence: YAL018C” value (gene YAL018C) was 6.9, the “level … of chemical substance/in its absence” value (gene YAL038W) was 3.1 and the “level … of chemical substance/in its absence” value (gene YAL044C) was 0.7. For the same compound, the “The level of expressed mRNA in the presence of chemical substance/absence: YAL049C” value (gene YAL049C) was 1.4, the “level … of chemical substance/in its absence” value (gene YAL054C) was 0.9 and the “The level of expressed mRNA in the presence of chemical substance/absence: YAR047C” value (gene YAR047C) was 0.5. For the same compound, the “The level of expressed mRNA in the presence of chemical substance/absence: YAR064W” value (gene YAR064W) was 1.9, the “level … of chemical substance/in its absence” value (gene YAR071W) was 1.1 and the “level … of chemical substance/in its absence” value (gene YBL001C) was 1.0. The “The level of expressed mRNA in the presence of chemical substance/absence: YBL044W” value (gene YBL044W) was 0.7, the “The level of expressed mRNA in the presence of chemical substance/absence: YBL100C” value (gene YBL100C) was 1.0 and the “The level of expressed mRNA in the presence of chemical substance/absence: YBR012C” value (gene YBR012C) was 1.1. The “The level of expressed mRNA in the presence of chemical substance/absence: YBR013C” value (gene YBR013C) was 1.1, the “level … of chemical substance/in its absence” value (gene YBR014C) was 1.2 and the “level … of chemical substance/in its absence” value (gene YBR023C) was 2.8. The “level … of chemical substance/in its absence” value (gene YBR029C) was 3.5, the “level … of chemical substance/in its absence” value (gene YBR035C) was 0.7 and the “level … of chemical substance/in its absence” value (gene YBR050C) was 0.5. The “The level of expressed mRNA in the presence of chemical substance/absence: YBR051W” value (gene YBR051W) was 0.8, the “The level of expressed mRNA in the presence of chemical substance/absence: YBR063C” value (gene YBR063C) was 1.6 and the “The level of expressed mRNA in the presence of chemical substance/absence: YBR066C” value (gene YBR066C) was 0.4. For the same compound, the “level … of chemical substance/in its absence” value (gene YBR068C) was 1.6, the “level … of chemical substance/in its absence” value (gene YBR111C) was 0.7 and the “The level of expressed mRNA in the presence of chemical substance/absence: YBR124W” value (gene YBR124W) was 1.0. The “The level of expressed mRNA in the presence of chemical substance/absence: YBR129C” value (gene YBR129C) was 0.9, the “level … of chemical substance/in its absence” value (gene YBR145W) was 1.2 and the “The level of expressed mRNA in the presence of chemical substance/absence: YBR162C” value (gene YBR162C) was 1.9. The “level … of chemical substance/in its absence” value (gene YBR183W) was 1.1, the “level … of chemical substance/in its absence” value (gene YBR222C) was 4.3 and the “The level of expressed mRNA in the presence of chemical substance/absence: YBR255W” value (gene YBR255W) was 1.0. For the same compound, the “The level of expressed mRNA in the presence of chemical substance/absence: YBR281C” value (gene YBR281C) was 1.0, the “The level of expressed mRNA in the presence of chemical substance/absence: YBR287W” value (gene YBR287W) was 1.3 and the “level … of chemical substance/in its absence” value (gene YBR299W) was 0.6. The “level … of chemical substance/in its absence” value (gene YCL009C) was 6.5, the “The level of expressed mRNA in the presence of chemical substance/absence: YCL044C” value (gene YCL044C) was 4.4 and the “The level of expressed mRNA in the presence of chemical substance/absence: YCL056C” value (gene YCL056C) was 1.7. The “level … of chemical substance/in its absence” value (gene YCL064C) was 21.4, the “The level of expressed mRNA in the presence of chemical substance/absence: YCR007C” value (gene YCR007C) was 0.8 and the “level … of chemical substance/in its absence” value (gene YCR037C) was 1.0. The “level … of chemical substance/in its absence” value (gene YCR048W) was 3.1, the “level … of chemical substance/in its absence” value (gene YCR098C) was 11.0 and the “level … of chemical substance/in its absence” value (gene YDL022W) was 0.9. The “The level of expressed mRNA in the presence of chemical substance/absence: YDL046W” value (gene YDL046W) was 2.3, the “The level of expressed mRNA in the presence of chemical substance/absence: YDL089W” value (gene YDL089W) was 1.6 and the “The level of expressed mRNA in the presence of chemical substance/absence: YDL173W” value (gene YDL173W) was 1.1. For the same compound, the “The level of expressed mRNA in the presence of chemical substance/absence: YDL193W” value (gene YDL193W) was 1.2, the “The level of expressed mRNA in the presence of chemical substance/absence: YDL233W” value (gene YDL233W) was 1.3 and the “level … of chemical substance/in its absence” value (gene YDR009W) was 3.2. For the same compound, the “level … of chemical substance/in its absence” value (gene YDR019C) was 1.8, the “The level of expressed mRNA in the presence of chemical substance/absence: YDR071C” value (gene YDR071C) was 0.9 and the “The level of expressed mRNA in the presence of chemical substance/absence: YDR078C” value (gene YDR078C) was 0.5. For the same compound, the “The level of expressed mRNA in the presence of chemical substance/absence: YDR090C” value (gene YDR090C) was 1.1, the “The level of expressed mRNA in the presence of chemical substance/absence: YDR109C” value (gene YDR109C) was 1.7 and the “The level of expressed mRNA in the presence of chemical substance/absence: YDR128W” value (gene YDR128W) was 1.4.
